Test results: article PMC7112848 (Journal of Virological Methods, 2008)

Columns and labels:
[1] = target: rgH5N1 NA (Influenza A virus, UniProt Q6DPL2); format: biochemical
[2] = test system: viral NAs; format: biochemical, reverse-genetic influenza A viruses rgH1N1, rgH5N1, rgH1N3

Sequence of rgH5N1 NA (Q6DPL2 whole entry, looked up): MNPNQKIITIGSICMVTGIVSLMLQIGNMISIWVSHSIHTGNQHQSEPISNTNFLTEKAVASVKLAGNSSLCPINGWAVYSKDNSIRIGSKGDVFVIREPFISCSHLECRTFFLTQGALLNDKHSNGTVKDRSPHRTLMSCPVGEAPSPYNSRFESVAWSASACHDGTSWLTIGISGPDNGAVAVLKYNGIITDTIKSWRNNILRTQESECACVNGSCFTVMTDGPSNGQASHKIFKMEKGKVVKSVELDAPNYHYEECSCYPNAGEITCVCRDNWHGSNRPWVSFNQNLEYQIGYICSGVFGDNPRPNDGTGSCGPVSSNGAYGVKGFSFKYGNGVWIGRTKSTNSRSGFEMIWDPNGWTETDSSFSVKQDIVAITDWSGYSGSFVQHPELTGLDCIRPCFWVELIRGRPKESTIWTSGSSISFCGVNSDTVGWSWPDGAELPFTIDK

With CC(=O)N[C@@H]1[C@@H](O)C[C@](Oc2ccc3c(C)cc(=O)oc3c2)(C(=O)O)O[C@H]1C(O)[C@H](O)CO (stereo partly drawn) [MUNANA, 2′-(4-methylumbelliferyl)-α-D-N-acetylneuraminic acid] the Km [1] was 15 ± 3 µM and the Km [2] was 15 to 18 µM.
